Experimental data from ChEMBL document CHEMBL1135321, “Tetrahydrothienopyridylbutyl-tetrahydrobenzindoles: new selective ligands of the 5-HT(7) receptor” (Bioorg Med Chem Lett, 2002).
One block for each compound: values may come before it. Activity calls are given as the source filed them. No cut-off for these calls is given here.

Columns and labels:
[1] = target: T1, Serotonin 3 receptor (5HT3) (Mus musculus, UniProt Q9JHJ5+P23979); experiment: Ability to displace the radioligand [3H]GR-65630 from 5-hydroxytryptamine 3 receptor expressed in NIE-115 cells; type: cell-based
T1 sequence (Q9JHJ5 whole entry): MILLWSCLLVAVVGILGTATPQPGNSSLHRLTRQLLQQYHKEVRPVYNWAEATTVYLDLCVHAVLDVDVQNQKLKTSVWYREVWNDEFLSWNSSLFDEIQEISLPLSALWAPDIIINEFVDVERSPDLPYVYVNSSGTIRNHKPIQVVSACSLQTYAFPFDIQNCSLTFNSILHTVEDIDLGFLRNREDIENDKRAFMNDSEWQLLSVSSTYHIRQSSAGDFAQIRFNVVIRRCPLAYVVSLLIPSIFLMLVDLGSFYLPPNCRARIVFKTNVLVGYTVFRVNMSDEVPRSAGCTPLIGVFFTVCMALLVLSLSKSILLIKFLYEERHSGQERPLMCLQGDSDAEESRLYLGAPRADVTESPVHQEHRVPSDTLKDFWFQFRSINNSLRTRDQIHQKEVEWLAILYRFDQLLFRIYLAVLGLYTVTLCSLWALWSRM
T1 sequence (P23979 whole entry): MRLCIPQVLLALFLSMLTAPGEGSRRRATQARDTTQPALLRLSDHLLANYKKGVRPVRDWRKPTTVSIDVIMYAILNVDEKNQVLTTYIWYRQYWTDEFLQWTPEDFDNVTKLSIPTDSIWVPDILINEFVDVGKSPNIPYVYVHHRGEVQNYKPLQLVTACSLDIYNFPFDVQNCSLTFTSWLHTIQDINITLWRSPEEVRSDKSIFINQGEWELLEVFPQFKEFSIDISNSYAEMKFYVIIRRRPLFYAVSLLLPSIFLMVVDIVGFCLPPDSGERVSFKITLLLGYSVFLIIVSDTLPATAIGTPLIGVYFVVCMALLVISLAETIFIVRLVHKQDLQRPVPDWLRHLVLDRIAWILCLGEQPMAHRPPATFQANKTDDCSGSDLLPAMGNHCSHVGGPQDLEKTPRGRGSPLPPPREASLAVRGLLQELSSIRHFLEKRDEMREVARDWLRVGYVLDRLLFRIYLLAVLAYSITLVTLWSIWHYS

[2] = target: Serotonin 2 (5-HT2) receptor (Rattus norvegicus, UniProt P30994+P08909+P14842); experiment: Ability to displace the radioligand [3H]ketanserin from 5-hydroxytryptamine 2 receptor of rat cerebral cortex membrane; type: tissue-based
[3] = target: T2, 5-hydroxytryptamine receptor 1A (Homo sapiens, UniProt P08908); experiment: Ability to displace the radioligand [3H]-8-OH-DPAT from human 5-hydroxytryptamine 1A receptor
T2 sequence (P08908 whole entry): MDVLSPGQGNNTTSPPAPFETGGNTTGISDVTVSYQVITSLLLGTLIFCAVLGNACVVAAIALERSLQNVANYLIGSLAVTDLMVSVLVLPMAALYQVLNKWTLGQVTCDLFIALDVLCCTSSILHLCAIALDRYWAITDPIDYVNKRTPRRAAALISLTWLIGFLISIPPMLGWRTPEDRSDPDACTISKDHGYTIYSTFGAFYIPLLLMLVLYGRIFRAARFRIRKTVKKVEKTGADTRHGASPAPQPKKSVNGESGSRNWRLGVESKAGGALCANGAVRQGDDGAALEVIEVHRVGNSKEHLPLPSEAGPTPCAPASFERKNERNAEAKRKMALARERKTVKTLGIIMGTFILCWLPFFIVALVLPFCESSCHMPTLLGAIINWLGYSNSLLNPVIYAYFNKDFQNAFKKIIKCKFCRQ

[4] = target: T3, 5-hydroxytryptamine receptor 4 (Cavia porcellus, UniProt O70528); experiment: Ability to displace the radioligand [3H]GR-113808 from guinea pig striatum 5-hydroxytryptamine 4 receptor
T3 sequence (O70528 whole entry): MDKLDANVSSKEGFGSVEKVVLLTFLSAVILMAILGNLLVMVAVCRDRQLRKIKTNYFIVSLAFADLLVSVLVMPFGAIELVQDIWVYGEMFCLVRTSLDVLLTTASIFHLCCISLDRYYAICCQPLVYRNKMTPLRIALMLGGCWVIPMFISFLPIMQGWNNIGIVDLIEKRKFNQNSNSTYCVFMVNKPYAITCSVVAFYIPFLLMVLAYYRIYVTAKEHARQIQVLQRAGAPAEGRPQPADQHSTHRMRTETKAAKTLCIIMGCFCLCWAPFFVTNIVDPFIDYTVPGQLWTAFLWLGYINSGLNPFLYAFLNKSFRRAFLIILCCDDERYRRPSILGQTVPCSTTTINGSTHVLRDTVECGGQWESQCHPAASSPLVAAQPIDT

[5] = target: 5-hydroxytryptamine receptor 7 (Homo sapiens, UniProt P34969); experiment: Ability to displace the radioligand [3H]5-carboxyamidotryptamine ([3H]5-CT) from human 5-hydroxytryptamine 7 receptor expressed in COS-7 cells; type: cell-based
5-hydroxytryptamine receptor 7, sequence (P34969 whole entry): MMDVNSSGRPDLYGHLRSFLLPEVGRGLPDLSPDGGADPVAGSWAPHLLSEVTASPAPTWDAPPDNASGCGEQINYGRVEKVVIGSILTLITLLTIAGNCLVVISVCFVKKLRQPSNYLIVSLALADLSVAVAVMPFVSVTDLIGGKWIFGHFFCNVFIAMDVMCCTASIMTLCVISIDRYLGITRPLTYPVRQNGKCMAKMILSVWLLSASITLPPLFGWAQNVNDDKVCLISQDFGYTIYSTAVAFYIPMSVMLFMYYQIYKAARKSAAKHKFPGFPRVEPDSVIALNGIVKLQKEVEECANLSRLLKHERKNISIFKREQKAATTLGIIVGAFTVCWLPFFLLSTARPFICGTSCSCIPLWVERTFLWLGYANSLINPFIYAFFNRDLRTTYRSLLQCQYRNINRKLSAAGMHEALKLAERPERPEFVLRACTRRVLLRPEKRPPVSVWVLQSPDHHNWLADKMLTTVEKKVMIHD

[6] = target: 5-hydroxytryptamine receptor 6 (Homo sapiens, UniProt P50406); experiment: Ability to displace the radioligand [3H]LSD from human 5-hydroxytryptamine 6 receptor
5-hydroxytryptamine receptor 6, sequence (P50406 whole entry): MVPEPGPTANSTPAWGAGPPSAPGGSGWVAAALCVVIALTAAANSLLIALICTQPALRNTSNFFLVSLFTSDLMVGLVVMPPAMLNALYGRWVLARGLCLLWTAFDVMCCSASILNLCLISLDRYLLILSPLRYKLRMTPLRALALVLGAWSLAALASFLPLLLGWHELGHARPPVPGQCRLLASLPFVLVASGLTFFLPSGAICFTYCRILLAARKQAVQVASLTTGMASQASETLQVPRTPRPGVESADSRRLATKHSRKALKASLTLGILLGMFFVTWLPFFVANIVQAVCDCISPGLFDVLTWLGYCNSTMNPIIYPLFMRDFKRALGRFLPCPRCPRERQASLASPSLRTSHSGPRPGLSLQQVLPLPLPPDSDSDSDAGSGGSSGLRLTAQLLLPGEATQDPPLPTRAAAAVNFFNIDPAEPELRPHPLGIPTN

[7] = target: T4, 5-hydroxytryptamine receptor 1B (Rattus norvegicus, UniProt P28564); experiment: Ability to displace the radioligand [125I](-)-iodocyanopindolol from rat striatal 5-hydroxytryptamine 1B receptor
T4 sequence (P28564 whole entry): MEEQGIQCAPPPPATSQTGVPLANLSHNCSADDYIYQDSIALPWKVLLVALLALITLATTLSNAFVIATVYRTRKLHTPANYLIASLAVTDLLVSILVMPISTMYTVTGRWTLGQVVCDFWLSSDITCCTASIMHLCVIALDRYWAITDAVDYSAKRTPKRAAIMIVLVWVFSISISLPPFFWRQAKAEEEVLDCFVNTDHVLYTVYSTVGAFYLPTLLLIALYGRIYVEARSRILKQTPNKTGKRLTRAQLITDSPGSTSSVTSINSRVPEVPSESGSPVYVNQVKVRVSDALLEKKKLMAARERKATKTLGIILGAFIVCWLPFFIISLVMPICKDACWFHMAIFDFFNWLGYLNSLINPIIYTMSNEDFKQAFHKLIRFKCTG

HEK293 = experiment: Influence on 5-HT-induced stimulation of cAMP accumulation in HEK 293 cells; NS is not Stimulated; type: functional, cell-based; conditions: Homo sapiens
[8] = target: T4, 5-hydroxytryptamine receptor 1B; experiment: Ability to displace the radioligand [125I](-)-iodocyanopindolol from rat striatal 5-HT1B receptor
[9] = target: T3, 5-hydroxytryptamine receptor 4; experiment: Ability to displace the radioligand [3H]GR-113808 from guinea pig striatum 5-HT4 receptor

SMILES: O=C1Nc2cccc3c2C1(CCCCCN1CCc2ccccc2C1)CCC3 (centres undefined)
Log Ki [2]: -6.16
Ki [5]: 0.0126 µM

SMILES: O=C1Nc2cccc3c2C1(CCCN1CCc2ccccc2C1)CCC3 (centres undefined)
Log Ki [2]: -6.31
Ki [5]: 0.00832 µM

SMILES: O=C1Nc2cccc3c2C1(CCCCN1CCc2ccccc2C1)CCC3 (centres undefined)
Log Ki [2]: -6.21
Ki [5]: 0.00447 µM

SMILES: O=C1Nc2cccc3c2C1(CCCCN1CCc2n[nH]cc2C1)CCC3 (centres undefined)
Log Ki [2]: < -6
Ki [5]: 0.813 µM

SMILES: O=C1Nc2cccc3c2C1(CCCCN1CCc2[nH]cnc2C1)CCC3 (centres undefined)
Log Ki [2]: < -6
Ki [5]: 0.562 µM

The remaining compounds from weak to strong by Ki [5], led by results:

Log Ki [2]: -6.31
Ki [5]: 0.174 µM
SMILES: CCN1C(=O)C2(CCCCN3CCc4sccc4C3)CCCc3cccc1c32 (centres undefined)

Log Ki [2]: < -6
Ki [5]: 0.0158 µM
SMILES: O=C1Nc2cccc3c2C1(CCCCN1CCc2occc2C1)CCC3 (centres undefined)

Log Ki [1]: < -6
Log Ki [2]: -6.02
Ki [3]: 0.776 µM
Ki [8]: > 1 µM
Ki [9]: > 1 µM
Ki [5]: 0.00977 µM
Ki [6]: > 1 µM
SMILES: CN1C(=O)C2(CCCCN3CCc4sccc4C3)CCCc3cccc1c32 (centres undefined)

Log Ki [1]: < -6
Log Ki [2]: -6.08
Ki [3]: 0.513 µM
Ki [4]: > 1 µM
Ki [5]: 0.00646 µM
Ki [6]: > 1 µM
Ki [7]: > 1 µM
SMILES: O=C1Nc2cccc3c2C1(CCCCN1CCc2sccc2C1)CCC3 (centres undefined)
Activity (HEK293): inactive
